Measured values published in US10295551B2, “Development and use of fluorescent probes of unbound bilirubin” (Alan Marc Kleinfeld, priority 2011, dated 2019).

How the values were obtained:
[1] = molecular target: T1, rat intestinal fatty acid binding protein (rI-FABP, SEQ ID NO: 3) variant L24P19C7, 14R 18L 38V 60R 73F 106C 115R 117D, SEQ ID NO: 36 (Rattus norvegicus, UniProt P02693, A74F/L39V/L73A/M19L/Q116R/R107C/V61R/Y118D/Y15R); assay: bilirubin binding to L24P19C7 probe (fluorescence titration)
T1 construct: made in house
Description: Also described are analytical/mathematical methods for calibrating and using the bilirubin probes. Bilirubin probes are calibrated to determine their binding affinity for bilirubin (dissociation constant Kd) under conditions, such as temperature, pH and solution composition, that correspond to samples in which it is desired to know the unbound bilirubin concentration. Binding isotherms are performed in aqueous buffer by measuring the change in fluorescence of the bilirubin probes in response to increasing bilirubin concentrations (“titration data”). The set of fluorescence responses at each bilirubin concentration are fitted with an appropriate equation (“calibration equation”) that correctly describes the fluorescence response as a function of the bilirubin concentration, the probe concentration, specific spectroscopic characteristics, and the Kd. […] Bilirubin probes are derived from a rat intestinal fatty acid binding protein (rI-FABP) as described previously for unbound FFA (FFAu) probes in U.S. Pat. No. 7,601,510, U.S. publication 2010/0298162 and [Huber A H, Zhu […] and […]. Fluorescence Sensor for the Quantification of Unbound Bilirubin Concentrations. Clin Chem 58: 869-876, 2012; Huber […], Zhu B and […]. Fatty acid-specific fluorescent probes and their use in resolving mixtures of different unbound free fatty acids in equilibrium with albumin. […]

[2] = molecular target: rI-FABP (SEQ ID NO: 3) variant L2P14 F7, 18G 31M 72A (Rattus norvegicus, UniProt P02693, G32M/L73A/M19G); assay: bilirubin binding to L2P14F7 probe; details: Table 6, acrylodan
Description: (§1) Also described are analytical/mathematical methods for calibrating and using the bilirubin probes. Bilirubin probes are calibrated to determine their binding affinity for bilirubin (dissociation constant Kd) under conditions, such as temperature, pH and solution composition, that correspond to samples in which it is desired to know the unbound bilirubin concentration. Binding isotherms are performed in aqueous buffer by measuring the change in fluorescence of the bilirubin probes in response to increasing bilirubin concentrations (“titration data”). The set of fluorescence responses at each bilirubin concentration are fitted with an appropriate equation (“calibration equation”) that correctly describes the fluorescence response as a function of the bilirubin concentration, the probe concentration, specific spectroscopic characteristics, and the Kd.

[3] = molecular target: T2, rI-FABP (SEQ ID NO: 3) variant L2P14F7-MGCFD, MGCFD - 18G 31M 72A (Rattus norvegicus, UniProt P02693, A2G/G32M/INS2C/L73A/M19G); assay: bilirubin binding to L2P14F7-MGCFD probe; details: Table 5, Texas Red C2-Maleimide
T2 construct: made in house
Description: as §1

[4] = molecular target: T3, rI-FABP (SEQ ID NO: 3) variant L2P14F7 MGI KR14 K27C, MGI - KR14 - 18G 27C 31M 72A (Rattus norvegicus, UniProt P02693, A2G/G32M/INS2I/K101R/K126R/K130R/K131R/K17R/K21R/K28C/K30R/K38R/K47R/K51R/K89R/K8R/K93R/K95R/L73A/M19G); assay: bilirubin binding to L2P14F7 MGI KR14 K27C probe; details: Table 5, acrylodan
T3 construct: made in house
Description: as §1

[5] = molecular target: T4, rI-FABP (SEQ ID NO: 3) variant L2P14F7 MGI KR14 K27K, MGI - KR14 - 18G 27K 31M 72A (Rattus norvegicus, UniProt P02693, G32M/K101R/K126R/K17R/K21R/K30R/K38R/K47R/K51R/K89R/K8R/K93R/K95R/L73A/M19G); assay: bilirubin binding to L2P14F7 MGI KR14 K27K probe; details: Table 6, acrylodan
T4 construct: made in house
Description: as §1

[6] = molecular target: T5, rI-FABP (SEQ ID NO: 3) variant L22P33 A10, 38R 72A 73N 106S 115C (Rattus norvegicus, UniProt P02693, A74N/L39R/L73A/Q116C/R107S); assay: bilirubin binding to L22P33A10 probe; details: Table 5, acrylodan
T5 construct: made in house
Description: as §1

[7] = molecular target: T6, rI-FABP (SEQ ID NO: 3) variant L24P19C7-K27C, 14R 18L 27C 38V 60R 73F 106C 115R 117D (Rattus norvegicus, UniProt P02693, A74F/K28C/L39V/L73A/M19L/Q116R/R107C/V61R/Y118D/Y15R); assay: bilirubin binding to L24P19C7-K27C probe; details: Table 5, acrylodan
T6 construct: made in house
Description: as §1

[8] = molecular target: T7, rI-FABP (SEQ ID NO: 3) variant L24P19 C7 K27K 22C, 14R 18L 22C 38V 60R 73F 106C 115R 117D (Rattus norvegicus, UniProt P02693, A74F/G23C/L39V/L73A/M19L/Q116R/R107C/V61R/Y118D/Y15R); assay: bilirubin binding to L24P19C7 22C probe; details: Table 5, acrylodan
T7 construct: made in house
Description: as §1
(§2) . […] The optimal probe performance was obtained with cysteine at positions 25 or 26.

[9] = molecular target: T8, rI-FABP (SEQ ID NO: 3) variant L24P19 C7 K27K 25C, 14R 18L 25C 38V 60R 73F 106C 115R 117D (Rattus norvegicus, UniProt P02693, A74F/L39V/L73A/M19L/Q116R/R107C/V26C/V61R/Y118D/Y15R); assay: bilirubin binding to L24P19C7 25C probe; details: Table 5, acrylodan
T8 construct: made in house
Description: as §1, §2

[10] = molecular target: T9, rI-FABP (SEQ ID NO: 3) variant L24P19 C7 K27K 26C, 14R 18L 26C 38V 60R 73F 106C 115R 117D (Rattus norvegicus, UniProt P02693, A74F/L39V/L73A/M19L/Q116R/R107C/V27C/V61R/Y118D/Y15R); assay: bilirubin binding to L24P19C7 26C probe; details: Table 5, acrylodan
T9 construct: made in house
Description: as §1, §2

[11] = molecular target: T10, rI-FABP (SEQ ID NO: 3) variant L24P19 C7, 14R 18L 27A 38V 60R 73F 106A 115R 117D (Rattus norvegicus, UniProt P02693, A74F/K28A/L39V/L73A/M19L/Q116R/R107A/V61R/Y118D/Y15R); assay: bilirubin binding to L24P19 C7 as listed in Table 6; details: Table 6, acrylodan
T10 construct: Residues 27 and 106 disputed: row prints 27A 106A
Description: as §1

T1 sequence (P02693 with tags, fused parts or gaps Y15R/M19L/L39V/V61R/L73A/A74F/R107C/Q116R/Y118D): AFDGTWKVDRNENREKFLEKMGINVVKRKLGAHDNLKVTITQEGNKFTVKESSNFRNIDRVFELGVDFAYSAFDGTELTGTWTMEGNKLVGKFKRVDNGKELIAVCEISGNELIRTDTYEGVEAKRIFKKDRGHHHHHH
T6 sequence (P02693 with tags, fused parts or gaps Y15R/M19L/K28C/L39V/V61R/L73A/A74F/R107C/Q116R/Y118D): as the sequence (P02693 with tags, fused parts or gaps Y15R/M19L/L39V/V61R/L73A/A74F/R107C/Q116R/Y118D) above, with K27C counted along it
T9 sequence (P02693 with tags, fused parts or gaps Y15R/M19L/V27C/L39V/V61R/L73A/A74F/R107C/Q116R/Y118D): as the sequence (P02693 with tags, fused parts or gaps Y15R/M19L/L39V/V61R/L73A/A74F/R107C/Q116R/Y118D) above, with V26C counted along it
T2 sequence (P02693 with tags, fused parts or gaps M19G/G32M/L73A): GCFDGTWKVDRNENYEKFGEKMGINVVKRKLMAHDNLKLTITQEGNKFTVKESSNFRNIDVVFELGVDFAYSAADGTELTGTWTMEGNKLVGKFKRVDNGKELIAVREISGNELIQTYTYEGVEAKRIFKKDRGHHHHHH
T3 sequence (P02693 with tags, fused parts or gaps with the stated changes): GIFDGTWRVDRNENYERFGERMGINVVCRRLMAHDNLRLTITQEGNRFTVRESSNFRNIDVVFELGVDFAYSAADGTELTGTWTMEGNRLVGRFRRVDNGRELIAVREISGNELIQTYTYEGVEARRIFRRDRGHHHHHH
T4 sequence (P02693 with tags, fused parts or gaps with the stated changes): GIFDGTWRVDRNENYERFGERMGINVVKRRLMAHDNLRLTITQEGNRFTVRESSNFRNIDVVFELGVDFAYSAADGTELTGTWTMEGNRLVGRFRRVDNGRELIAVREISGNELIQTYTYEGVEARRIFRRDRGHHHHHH
T5 sequence (P02693 with tags, fused parts or gaps L39R/L73A/A74N/R107S/Q116C): as the sequence (P02693 with tags, fused parts or gaps Y15R/M19L/L39V/V61R/L73A/A74F/R107C/Q116R/Y118D) above, with R14Y, L18M, V38R, R60V, F73N, C106S, R115C, D117Y counted along it
T7 sequence (P02693 with tags, fused parts or gaps Y15R/M19L/G23C/L39V/V61R/L73A/A74F/R107C/Q116R/Y118D): as the sequence (P02693 with tags, fused parts or gaps Y15R/M19L/L39V/V61R/L73A/A74F/R107C/Q116R/Y118D) above, with G22C counted along it
rI-FABP (SEQ ID NO: 3) variant L2P14 F7, 18G 31M 72A, sequence (P02693 with tags, fused parts or gaps M19G/G32M/L73A): as the sequence (P02693 with tags, fused parts or gaps Y15R/M19L/L39V/V61R/L73A/A74F/R107C/Q116R/Y118D) above, with R14Y, L18G, G31M, V38L, R60V, F73A, C106R, R115Q, D117Y counted along it
T8 sequence (P02693 with tags, fused parts or gaps Y15R/M19L/V26C/L39V/V61R/L73A/A74F/R107C/Q116R/Y118D): as the sequence (P02693 with tags, fused parts or gaps Y15R/M19L/L39V/V61R/L73A/A74F/R107C/Q116R/Y118D) above, with V25C counted along it
T10 sequence (P02693 with tags, fused parts or gaps Y15R/M19L/K28A/L39V/V61R/L73A/A74F/R107A/Q116R/Y118D): as the sequence (P02693 with tags, fused parts or gaps Y15R/M19L/L39V/V61R/L73A/A74F/R107C/Q116R/Y118D) above, with K27A, C106A counted along it

Kd ([1]; 22° C., aqueous bilirubin, acrylodan label): 22 nM
Kd ([1]; Table 5, acrylodan): 35 nM
Kd [2]: 69 nM
Kd [3]: 400 nM
Kd [4]: 350 nM
Kd [5]: 84 nM
Kd [6]: 245 nM
Kd [7]: 242 nM
Kd [8]: 71 nM
Kd [9]: 19 nM
Kd [10]: 19 nM
Kd [11]: 33 nM
Structure (SMILES): C=CC1=C(C)/C(=C/c2[nH]c(Cc3[nH]c(/C=C4\NC(=O)C(C)=C4C=C)c(C)c3CCC(=O)O)c(CCC(=O)O)c2C)NC1=O [bilirubin]
